Data reported in patent US9957288B2, “Pyrabactin analogues to modulate plant development” (Universiteit Gent, priority 2014, dated 2018).

Legend:
[1] = system: Arabidopsis thaliana Columbia (Col0) seedlings; assay: Primary root elongation of etiolated seedlings on compound medium; format: in vivo; details: in vivo
[2] = system: Arabidopsis thaliana Columbia (Col0) seedlings; assay: Lateral root initiation (lateral roots + lateral root primordia, number and density); format: in vivo; details: in vivo
[3] = system: Arabidopsis thaliana seeds; assay: Arabidopsis thaliana seed germination assay; format: in vivo; details: in vivo
tobacco epidermal strips = assay: Stomatal closure assay on epidermal strips; format: cell-based, Nicotiana tabacum
[4] = system: etiolated Arabidopsis thaliana seedlings; details: in vivo
[5] = system: Arabidopsis thaliana seedlings; details: in vivo

Row | Compound | PR [1] | effect on primary root growth [1] | LR [2] | effect on LR+ LRP density (per cm primary root) [2] | effect on number of LR+ LRP (lateral root initiation) [2] | Seed germination [3] | effect on seed germination [3] | Stomata (tobacco epidermal strips) | effect on stomatal aperture (tobacco epidermal strips) | AR [4] | effect on adventitious root formation [4] | Shoot [5] | effect on shoot development [5] | LR+ LRP density [2] | stomata closure to % of the start opening (tobacco epidermal strips) | time to 50% of closure of stomata (tobacco epidermal strips)
1 | CCOP(=O)(NCc1ccccc1)c1ccc(F)c2ccccc12 (stereo not drawn) [Analogue E6, Ethyl N-(benzyl)-P-(4-fluoronapht-1-yl)phosphonamidate] | ++ | reducing the root growth comparable to pyrabactin | +++ | strong density reduction (even stronger than ABA) | strong inhibitors | 0 | did not inhibit the germination | +++ | strongly induced stomatal closure | +++ | reduction of adventitious root formation, respectively stronger or similar to pyrabactin | ++ | inhibition of leaf size comparable with pyrabactin |  |  | 
2 | CCOP(=O)(NCc1cccnc1)c1ccc(F)c2ccccc12 (stereo not drawn) [Analogue E5, Ethyl N-(pyridin-3-ylmethyl)-P-(4-fluoronapht-1-yl)phosphonamidate] | + | modest inhibitors of primary root elongation | + |  | modest to weak inhibitors of lateral root formation | +++ | significant reduction of the percentage of germinating seeds | + | intermediate stomatal closure | 0 |  | 0 |  |  |  | 
3 | CCOP(=O)(NCc1ccncc1)c1ccc(Br)c2ccccc12 (stereo not drawn) [Analogue E7, Ethyl N-(pyridin-4-ylmethyl)-P-(4-bromonapht-1-yl)phosphonamidate] | +++ | strongly inhibited primary root growth | +++ |  | strong inhibitors | 0 |  | 0 | did not affect the size of the stomatal aperture | +++ | reduction of adventitious root formation, respectively stronger or similar to pyrabactin | +++ | strong inhibition of the seedling's shoot development | around 5 LR+ LRP per cm primary root |  | 
4 | CCOP(=O)(NCc1ccccn1)c1ccc(F)c2ccccc12 (stereo not drawn) [Analogue E2, Ethyl N-(pyridin-2-ylmethyl)-P-(4-fluoronapht-1-yl)phosphonamidate] | 0 | did not show a significant effect | + | reduced the numbers of LR+ LRP similarly to ABA | modest to weak inhibitors of lateral root formation | 0 |  | +++ |  | − | stimulated AR formation | − | stimulated the development of leaves in comparison with the control |  | 50% | 30 min
